In the supplement of paper PMC11208160:

Assay: recombinant UMI read abundance after kanamycin selection (control-corrected) (log10(CPM+1)); higher = more efficient recombination; extreme values may be limits of the assay; sequences stand for … in AGTGCAGAGAAAATCGGCCAGTTTTCTCTGCCTGCAGTCCGCATGCCGTGGGACCCCTTGGGTTCTAACCTGTTGCCTAGATTTATGCAGCGGACTGCCTTTCTCCCAAAGTGATAAACCGG…AGGTTGGTTTCACT; site = the 11-nt donor
In short: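 For the IS621 bridge recombinase, a pooled Escherichia coli screen tested donor and donor-binding-loop pairs. Cells received the pair library together with a target plasmid encoding a fixed target and T7-inducible recombinase, then went onto IPTG (0.07 mM) plus kanamycin or unselected plates in duplicate. After PCR across the donor–target junction and sequencing, recombinant UMI counts were normalized to CPM, averaged, and scaled by control-derived factors. Each value is given as log10(CPM+1).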
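Also: IS621 bridge recombinase in Escherichia coli cells against a fixed T5 target plasmid.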

Sequence	recombinant UMI read abundance (log10)
CACGGCCCATGGACCGGTTTTCCCGGTAATCCGTATTTGTT (site CACGTCCCTAA)	0.0115
CACGGCCCATGGACCGGTTTTCCCGGTAATCCGTATTTGTT (site CACTGCCCTAA)	0.0132
CACGGCCCATGGACCGGTTTTCCCGGTAATCCGTATTTGTT (site CAGGGCCCTAA)	0.00724
CACGGCCCATGGACCGGTTTTCCCGGTAATCCGTATTTGTT (site CATGGCCCTAA)	0.013
CACGGCCCATGGACCGGTTTTCCCGGTAATCCGTATTTGTT (site CCCGGCCCTAA)	0.0158
CACGGCCCATGGACCGGTTTTCCCGGTAATCCGTATTTGTT (site CGCGGCCCTAA)	0.0132
CACGGCCCATGGACCGGTTTTCCCGGTAATCCGTATTTGTT (site CTCGGCCCTAA)	0.0153
CACGGCCCATGGACCGGTTTTCCCGGTAATCCGTATTTGTT (site GACGGCCCTAA)	0.0197
CACGGCCCATGGACCGGTTTTCCCGGTAATCCGTATTTGTT (site TACGGCCCTAA)	0.0279
CACGGCGCATGGACCGGTTTTCCCGGTAATCCGTATTTGTT (site CACGGCACTAA)	1.5
CACGGCGCATGGACCGGTTTTCCCGGTAATCCGTATTTGTT (site CACGGCCCTAA)	0.445
CACGGCGCATGGACCGGTTTTCCCGGTAATCCGTATTTGTT (site CACGGCGCTAA)	1.74
CACGGCGCATGGACCGGTTTTCCCGGTAATCCGTATTTGTT (site CACGGCTCTAA)	1.22
CACGTATCATGGACCGGTTTTCCCGGTAATCCGTATTTGAC (site CACGTATCTGT)	2.78
CACGTATCATGGACCGGTTTTCCCGGTAATCCGTATTTGAC (site CTAGTATCTGT)	1.1
CACGTCACATGGACCGGTTTTCCCGGTAATCCGTATTTGGG (site CAAGTCACTCC)	0.0977
CACGTCACATGGACCGGTTTTCCCGGTAATCCGTATTTGGG (site CACGTCACTCC)	0.0104
CACGTCACATGGACCGGTTTTCCCGGTAATCCGTATTTGGG (site CAGGTCACTCC)	0.00985
CACGTCACATGGACCGGTTTTCCCGGTAATCCGTATTTGGG (site CATGTCACTCC)	0.012
CACGTCCCATGGACCGGTTTTCCCGGTAATCCGTATTTGTT (site CACGACCCTAA)	0.22
CACGTCCCATGGACCGGTTTTCCCGGTAATCCGTATTTGTT (site CACGCCCCTAA)	0.263
CACGTCCCATGGACCGGTTTTCCCGGTAATCCGTATTTGTT (site CACGGCCCTAA)	0.00825
CACGTCCCATGGACCGGTTTTCCCGGTAATCCGTATTTGTT (site CACGTCCCTAA)	0.326
CACGTGGCATGGACCGGTTTTCCCGGTAATCCGTATTTGGA (site CACATGGCTTC)	0.429
CACGTGGCATGGACCGGTTTTCCCGGTAATCCGTATTTGGA (site CACCTGGCTTC)	0.475

Sequence	recombinant UMI read abundance (log10)
CACGTGGCATGGACCGGTTTTCCCGGTAATCCGTATTTGGA (site CACGTGGCTTC)	1.2
CACGTGGCATGGACCGGTTTTCCCGGTAATCCGTATTTGGA (site CACTTGGCTTC)	0.235
CACTAGCCATGGACCGGTTTTCCCGGTAATCCGTATTTGCC (site CACTAGCCTGG)	0.665
CACTAGCCATGGACCGGTTTTCCCGGTAATCCGTATTTGCC (site CCCTAGCCTGG)	0
CACTAGCCATGGACCGGTTTTCCCGGTAATCCGTATTTGCC (site CGCTAGCCTGG)	0
CACTAGCCATGGACCGGTTTTCCCGGTAATCCGTATTTGCC (site CTCTAGCCTGG)	0
CACTAGGCATGGACCGGTTTTCCCGGTAATCCGTATTTGAT (site CACTAGGCTAT)	1.33
CACTCGACATGGACCGGTTTTCCCGGTAATCCGTATTTGTG (site CACTCGACTCA)	0.319
CACTCGTCATGGACCGGTTTTCCCGGTAATCCGTATTTGCC (site CACTCATCTGG)	2.88
CACTCGTCATGGACCGGTTTTCCCGGTAATCCGTATTTGCC (site CACTCCTCTGG)	0
CACTCGTCATGGACCGGTTTTCCCGGTAATCCGTATTTGCC (site CACTCGTCTGG)	3.2
CACTCGTCATGGACCGGTTTTCCCGGTAATCCGTATTTGCC (site CACTCTTCTGG)	0
CACTCTTCATGGACCGGTTTTCCCGGTAATCCGTATTTGTT (site CACTCTTCTAA)	1.58
CACTGACCATGGACCGGTTTTCCCGGTAATCCGTATTTGGG (site CACTGACCTCC)	0.00646
CACTGCTCATGGACCGGTTTTCCCGGTAATCCGTATTTGCC (site CACTACTCTGG)	2
CACTGCTCATGGACCGGTTTTCCCGGTAATCCGTATTTGCC (site CACTCCTCTGG)	0
CACTGCTCATGGACCGGTTTTCCCGGTAATCCGTATTTGCC (site CACTGCTCTGG)	2.93
CACTGCTCATGGACCGGTTTTCCCGGTAATCCGTATTTGCC (site CACTTCTCTGG)	0
CACTTCTCATGGACCGGTTTTCCCGGTAATCCGTATTTGCC (site CACTACTCTGG)	1.09
CACTTCTCATGGACCGGTTTTCCCGGTAATCCGTATTTGCC (site CACTCCTCTGG)	1.41
CACTTCTCATGGACCGGTTTTCCCGGTAATCCGTATTTGCC (site CACTGCTCTGG)	0
CACTTCTCATGGACCGGTTTTCCCGGTAATCCGTATTTGCC (site CACTTCTCTGG)	2.12
CACTTGACATGGACCGGTTTTCCCGGTAATCCGTATTTGGA (site CACTTGACTTC)	0.194
CACTTGACATGGACCGGTTTTCCCGGTAATCCGTATTTGGA (site CACTTGCCTTC)	0.0198
CACTTGACATGGACCGGTTTTCCCGGTAATCCGTATTTGGA (site CACTTGGCTTC)	0.369

Sequence	recombinant UMI read abundance (log10)
CACTTGACATGGACCGGTTTTCCCGGTAATCCGTATTTGGA (site CACTTGTCTTC)	0.138
CACTTGGCATGGACCGGTTTTCCCGGTAATCCGTATTTGAA (site CACTTGGCTTA)	0.431
CACTTGGCATGGACCGGTTTTCCCGGTAATCCGTATTTGAA (site CACTTGGCTTC)	0.236
CACTTGGCATGGACCGGTTTTCCCGGTAATCCGTATTTGAA (site CACTTGGCTTG)	1.05
CACTTGGCATGGACCGGTTTTCCCGGTAATCCGTATTTGAA (site CACTTGGCTTT)	1.33
CACTTGGCATGGACCGGTTTTCCCGGTAATCCGTATTTGGT (site CACTTGGCTAC)	1.79
CACTTGGCATGGACCGGTTTTCCCGGTAATCCGTATTTGGT (site CACTTGGCTCC)	0.103
CACTTGGCATGGACCGGTTTTCCCGGTAATCCGTATTTGGT (site CACTTGGCTGC)	1.88
CACTTGGCATGGACCGGTTTTCCCGGTAATCCGTATTTGGT (site CACTTGGCTTC)	0.0133
CACTTGGCATGGACCGGTTTTCCCGGTAATCCGTATTTGTA (site CACTTGGCTTA)	1.46
CACTTGGCATGGACCGGTTTTCCCGGTAATCCGTATTTGTA (site CACTTGGCTTC)	0.00904
CACTTGGCATGGACCGGTTTTCCCGGTAATCCGTATTTGTA (site CACTTGGCTTG)	1.47
CACTTGGCATGGACCGGTTTTCCCGGTAATCCGTATTTGTA (site CACTTGGCTTT)	0.75
CACTTTCCATGGACCGGTTTTCCCGGTAATCCGTATTTGAG (site CACTTTCCTCT)	0.0778
CACTTTGCATGGACCGGTTTTCCCGGTAATCCGTATTTGGA (site CACTTAGCTTC)	0.0269
CACTTTGCATGGACCGGTTTTCCCGGTAATCCGTATTTGGA (site CACTTCGCTTC)	0.0129
CACTTTGCATGGACCGGTTTTCCCGGTAATCCGTATTTGGA (site CACTTGGCTTC)	0.0264
CACTTTGCATGGACCGGTTTTCCCGGTAATCCGTATTTGGA (site CACTTTGCTTC)	1.71
CAGAACCCATGGACCGGTTTTCCCGGTAATCCGTATTTGCC (site CAGAACCCTGG)	0
CAGAATCCATGGACCGGTTTTCCCGGTAATCCGTATTTGAT (site CAGAATCCTAT)	1.84
CAGAATCCATGGACCGGTTTTCCCGGTAATCCGTATTTGAT (site CGGAATCCTAA)	0
CAGAATCCATGGACCGGTTTTCCCGGTAATCCGTATTTGTT (site CAGAATCCTAA)	2.07
CAGAATCCATGGACCGGTTTTCCCGGTAATCCGTATTTGTT (site CCGAATCCTAA)	0
CAGAATCCATGGACCGGTTTTCCCGGTAATCCGTATTTGTT (site CGGAATCCTAA)	0.0121
CAGAATCCATGGACCGGTTTTCCCGGTAATCCGTATTTGTT (site CTGAATCCTAA)	0
